Results published in patent US20190292546A1, “TLR3 AGONIST FOR USE FOR INDUCING APOPTOSIS IN SENESCENT CANCER CELLS” (Centre Léon-Bérard, priority 2016, published 2019).
Entries after “also recorded” stand apart in the source; their conditions may differ.

Tests used:
NCI-H292 cells = experiment: TLR3 expression by intracellular staining and flow cytometry; format: cell-based, human; settings: 7 days of culture with paclitaxel 4 nM, anti-TLR3.1 antibody, FIG. 4
Method: To ascertain that TLR3 expression was not lost upon senescence, Paclitaxel-Treated Cells were harvested, fixed and permeabilized with the Cytoperm/Cytofix kit (Becton Dickinson), then stained at 4° C. for TLR3 (anti-TLR3.1 antibody (Dendritics)+goat anti-mouse Alexa 647) and analyzed on a Becton Disckison FACSCalibur flow cytometer.

[1] = tested on: NCI-H292 human Non-Small-Cell Cancer Cells; experiment: Senescence status of Paclitaxel-Treated Cells (phase-contrast morphology, SA-β-GAL, IL-8); format: cell-based; settings: 4 nM paclitaxel
Method: (§1) NCI-H292 human Non-Small-Cell Cancer Cells were plated at 5000 cells/cm^2 in a 6-well plate in RPMI supplemented with 10% FCS and 1% Hepes/1% NAPy/PS. They were treated after 16-24 hours of plating and for 7 to 10 days with 4 nM paclitaxel (Sigma) or with DMSO (“solvent”), with a change of medium on day 4. The following tests were then performed to ascertain the Paclitaxel-Treated Cells' senescence status.
(§2) 1) An inverted phase-contrast light microscope was used at 40× magnification to evaluate morphology of the Paclitaxel-Treated Cells. […] 2) The senescence-associated β-galactosidase [SA-β-GAL] activity was measured in the Paclitaxel-Treated Cells described above using the Senescence beta-galactosidase Staining Kit (Cell Signaling Technology) (FIG. 2). 3) The secretion of IL-8 as part of the senescence-associated secretome (Tchkonia et al., 2013; J Clin Invest. 123(3):966-72) was quantified in the culture supernatant of the Paclitaxel-Treated Cells using an ELISA kit (Biolegend Kit hulL8), and read on a TECAN microplate reader).

[2] = tested on: NCI-H292 human Non-Small-Cell Cancer Cells; experiment: IL-8 secretion in culture supernatant by ELISA; format: cell-based; settings: 4 nM paclitaxel, 1, 3 or 7 days, last 24H of culture, FIG. 3
Method: NCI-H292 human Non-Small-Cell Cancer Cells were plated at 5000 cells/cm^2 in a 6-well plate in RPMI supplemented with 10% FCS and 1% Hepes/1% NAPy/PS. […] The following tests were then performed to ascertain the Paclitaxel-Treated Cells' senescence status.
as §2

[3] = tested on: Untreated or Radiation-Induced Senescent WT and TLR3 KO NCI-H292 Cells; experiment: TLR3-triggered apoptosis (Annexin V-FITC PI flow cytometry) in Radiation-Induced Senescent Cells; format: cell-based, human; settings: 10 μg/ml Poly(I:C), 24 hours, senescence by 8 Grey irradiation vs untreated NCI-H292, FIG. 6
Method: NCI-H292 human Non-Small-Cell Cancer Cells were plated at 5000 cells/cm^2 in a 6-well plate in RPMI supplemented with 10% FCS and 1% Hepes/1% NAPy/PS. They were irradiated with 8 Grey 16 hours after plating, and the medium was changed right after irradiation.
(§3) Radiation-Induced Senescent Cells' susceptibility to TLR3-triggered apoptosis was measured. Untreated or Radiation-Induced Senescent WT and TLR3 KO NCI-H292 Cells were incubated for 24 hours with 10 μg/ml Poly(I:C) (Invivogen), then cells were stained at 4° C. with Annexin V-FITC PI (Biolegend) and analyzed on a Becton Disckison FACSCalibur flow cytometer.

[4] = tested on: Untreated or Oxidative Stress-induced Senescent WT and TLR3 KO NCI-H292 Cells; experiment: TLR3-triggered apoptosis (Annexin V-FITC flow cytometry) in Oxidative Stress-induced Senescent Cells; format: cell-based, human; settings: 10 μg/ml Poly(I:C), 24 hours, senescence by 300 μM H2O2 vs untreated NCI-H292, FIG. 7
Method: NCI-H292 human Non-Small-Cell Cancer Cells were plated at 5000 cells/cm^2 in a 6-well plate in RPMI supplemented with 10% FCS and 1% Hepes/1% NAPy/PS. They were treated with 300 μM H2O2 16 hours after plating, and the medium was changed 1 hour after H2O2 treatment.
as §3, with “Oxidative Stress-induced” for “Radiation-Induced”, “V-FITC” for “V-FITC PI”

[5] = tested on: TLR3 WT and TLR3 KO NCI-H292 untreated or Paclitaxel-Treated Cells; experiment: TLR3-triggered apoptosis (Annexin V-FITC/PI flow cytometry) in Paclitaxel-Treated Cells; format: cell-based, human; settings: 4 μg/ml Poly(I:C), 24 hours, paclitaxel-induced senescent vs untreated NCI-H292, FIG. 5
Method: as §1
TLR3 WT and TLR3 KO NCI-H292 untreated or Paclitaxel-Treated Cells were incubated for 24 hours with 4 μg/ml Poly(I:C) (Invivogen), then cells were stained at 4° C. with Annexin V-FITC and PI (Biolegend) and analyzed on a Becton Disckison FACSCalibur flow cytometer.

| Molecule | expression of TLR3 by NCI-H292 cells (NCI-H292 cells) | morphology of the Paclitaxel-Treated Cells (observed changes) ([1]; 7 to 10 days, NCI-H292, phase-contrast microscopy 40x, FIG. 1) | senescence status of the cells ([1]; NCI-H292, FIGS. 1-3) | secretion of IL-8 in the culture supernatant [2] | susceptibility to TLR3-triggered apoptosis [3] | susceptibility to TLR3-triggered apoptosis [4] | susceptibility to TLR3-triggered apoptosis [5] |
| --- | --- | --- | --- | --- | --- | --- | --- |
| CC(=O)O[C@H]1C(=O)[C@@]2(C)[C@H]([C@H](OC(=O)c3ccccc3)[C@]3(O)C[C@H](OC(=O)[C@H](O)[C@@H](NC(=O)c4ccccc4)c4ccccc4)C(C)=C1C3(C)C)[C@]1(OC(C)=O)CO[C@@H]1C[C@@H]2O [Paclitaxel, paclitaxel] | increased | a stop in cell division and enlargement in size | have become senescent | Large amounts of IL-8 |  |  |  |
| Polyinosine-polycytidylic acid [Poly(I:C)] |  |  |  |  | induces apoptosis; also recorded: more sensitive to TLR3-triggered apoptosis | induces apoptosis; also recorded: more sensitive to TLR3-triggered apoptosis | more sensitive to TLR3-triggered apoptosis |
